Results published in US11046729B2, “Dipeptide analogs as TGF-beta inhibitors” (SOUTHERN RESEARCH INSTITUTE, priority 2017, dated 2021).
Values after ≈ are worked out from the molar mass of the structure shown. Values joined by “and” are separate entries in the source; they are usually repeats but may differ in a detail not shown here. Identical values can stand only once. Like-named read-outs stand apart in the source and are kept apart here. Blank lines part the entries; values can stand above or below the molecule they belong to. Non-standard residues stand in square brackets, D forms with d. Residues, ends and D or L forms follow the SMILES beside them. *: point of attachment. Orn = NCCC[C@H](N)C(=O)O; Ac5c = NC1(C(=O)O)CCCC1; Aib = CC(C)(N)C(=O)O; Butyryl = CCCC(=O)*

How the values were obtained:
[1] = target: T1, purified human platelet TSP-1 (activation of recombinant latent TGF-β1) (Homo sapiens, UniProt P07996); test: ELISA-based screening assay: TSP-1 activation of recombinant latent TGF-β1; format: biochemical; conditions: for % Inhibition at 50 pM: Table 2, 5e-05 µM
T1 construct: purified human platelet TSP-1 was incubated with compounds; from tissue; host or cells: human platelets
T1 sequence (P07996 19-1170): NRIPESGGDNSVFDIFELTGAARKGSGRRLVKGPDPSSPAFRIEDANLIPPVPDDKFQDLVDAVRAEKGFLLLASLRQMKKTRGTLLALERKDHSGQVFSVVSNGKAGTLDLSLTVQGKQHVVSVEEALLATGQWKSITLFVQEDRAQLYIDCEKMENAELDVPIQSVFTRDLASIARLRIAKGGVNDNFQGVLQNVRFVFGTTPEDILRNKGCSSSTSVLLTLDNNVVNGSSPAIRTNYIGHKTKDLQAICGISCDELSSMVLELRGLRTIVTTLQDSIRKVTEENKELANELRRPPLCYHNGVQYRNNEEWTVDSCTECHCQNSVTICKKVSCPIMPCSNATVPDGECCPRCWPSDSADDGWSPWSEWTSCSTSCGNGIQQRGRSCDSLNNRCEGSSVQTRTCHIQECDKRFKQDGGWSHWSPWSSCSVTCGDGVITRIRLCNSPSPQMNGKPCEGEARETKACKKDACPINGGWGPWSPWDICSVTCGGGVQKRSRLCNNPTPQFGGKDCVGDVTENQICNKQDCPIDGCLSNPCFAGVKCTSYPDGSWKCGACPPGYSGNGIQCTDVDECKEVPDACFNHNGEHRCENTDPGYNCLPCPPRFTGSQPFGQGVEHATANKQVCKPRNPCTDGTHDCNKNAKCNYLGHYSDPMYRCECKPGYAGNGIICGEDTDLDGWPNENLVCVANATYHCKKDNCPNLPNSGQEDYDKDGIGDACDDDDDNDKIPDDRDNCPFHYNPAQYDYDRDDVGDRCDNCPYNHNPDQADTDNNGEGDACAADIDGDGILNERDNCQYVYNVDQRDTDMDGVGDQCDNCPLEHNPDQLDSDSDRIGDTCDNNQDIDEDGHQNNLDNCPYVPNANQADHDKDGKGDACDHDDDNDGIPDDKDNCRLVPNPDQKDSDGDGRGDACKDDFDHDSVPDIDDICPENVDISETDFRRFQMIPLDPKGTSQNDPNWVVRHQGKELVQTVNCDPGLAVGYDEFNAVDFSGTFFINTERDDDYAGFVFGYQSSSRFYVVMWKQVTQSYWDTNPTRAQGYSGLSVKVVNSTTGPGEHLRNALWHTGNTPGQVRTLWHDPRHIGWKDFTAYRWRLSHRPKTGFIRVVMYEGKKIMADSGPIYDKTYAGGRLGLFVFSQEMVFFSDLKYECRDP
Protocol: For initial screening, an ELISA-based screening assay was used in which purified human platelet TSP-1 was incubated with compounds and then incubated with recombinant latent TGF-β1 (purchased from R&D Systems). Activity is measured in a commercially available ELISA which detects only active TGF-β (R &D Systems). Activity in the presence of compounds is compared to activity in TSP-1+latent TGF-β samples without inhibitory compounds (Lu et al. (2016) Am J Pathol 186:678-690).

[2] = system: TSP-1 activation of latent TGF-β; test: cell-based assay of TSP1 activation of latent TGF-β (Table 3; Secondary Assay of Table 1); design: species or system human
Protocol: To specifically assess activity of compounds in liver cell specific assays, two different assays were used. In the first, human hepatic stellate cells were incubated overnight in low serum media to condition the media with secreted latent TGF-β. Purified TSP1 either preincubated with compounds or not will be added to cultures and then conditioned media harvested to assess TGF-β biological activity using the R&D Systems ELISA as above. Hepatic stellate cells will be purchased from commercial sources. Although hepatic stellate cells are the primary drivers of liver fibrosis, conditions which drive liver fibrosis can induce hepatocyte TSP-1 expression which can then have paracrine effects on controlling TGF-β activation in hepatic stellate cells. Furthermore, TGF-β can negatively impact hepatocyte regeneration following injury. Therefore, the ability of compounds to blockTSP-1 activation of latent TGF-β will also be assessed in cultured primary human hepatocytes following the protocol described for the hepatic stellate cells. Similar approaches have successfully been used to screen compounds which inhibit human myeloma cell derived latent TGF-β activation by TSP-1 (Lu et al. (2016) Am J Pathol 186:678-690).

[3] = target: recombinant latent TGF-β1 (purchased from R&D Systems) (UniProt P01137); test: cell-based or functional assay
Chain of recombinant latent TGF-β1 (purchased from R&D Systems) (P01137 30-390 limits assumed): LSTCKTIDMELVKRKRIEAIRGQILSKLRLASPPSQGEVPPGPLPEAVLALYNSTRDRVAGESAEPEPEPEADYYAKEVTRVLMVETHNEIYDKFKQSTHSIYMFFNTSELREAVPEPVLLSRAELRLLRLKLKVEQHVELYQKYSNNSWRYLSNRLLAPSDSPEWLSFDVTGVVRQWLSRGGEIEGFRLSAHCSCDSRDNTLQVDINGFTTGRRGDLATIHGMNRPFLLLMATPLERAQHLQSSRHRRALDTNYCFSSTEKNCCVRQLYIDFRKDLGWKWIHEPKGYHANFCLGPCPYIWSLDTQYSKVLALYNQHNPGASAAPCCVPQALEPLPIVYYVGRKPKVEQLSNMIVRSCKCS

[4] = Human liver microsomal stability; format: in vitro ADME; conditions: human liver microsomes; read-out: Human Liver Microsomal Stability t1/2
[5] = Solubility; format: physicochemical
[6] = Log D; format: physicochemical
[7] = Pharmacokinetics (% F, T1/2, Tmax); conditions: in vivo
[8] = Rat liver microsomal stability; format: in vitro ADME; conditions: rat liver microsomes; read-out: Rat Liver Microsomal Stability t1/2
[9] = system: CAG MM cells; test: TGF-β activity in CAG MM cells (phospho-Smad 2 immunoblot); format: cell-based, human; conditions: 30 nM TSP1, 6 hrs
Protocol: Referring to FIG. 4A, CAG MM cells were incubated with 30 nM TSP1 for 6 hrs LSKL (SEQ ID NO:1) or SLLK (SEQ ID NO:2). Cell lysates were immunoblotted for phosphor-Smad 2. Blots were stripped and reprobed for total Smad 2/3 and GAPDH. Results are normalized to GAPDH (untreated controls=1). LSKL (SEQ ID NO:1) reduces TSP1 induced treatment or luciferase activity in cells treated with active TGF-β (not shown).

[10] = system: MSCs; test: Osteoblast differentiation by MSCs under osteogenic conditions; format: cell-based; conditions: osteogenic media, 20 days; TGF-β 5 ng/mL, TSP1 10 nM, LSKL 25 μM
Protocol: Referring to FIG. 1A, MSCs were grown to confluence in basal (control) media. Cells were treated with control growth media, osteogenic media, or osteogenic media with TGF-β (5 ng/mL) or stripped TSP1 (10 nM), TSP1+LSKL (SEQ ID NO:1) (25 μM), TSP1+SLLK (SEQ ID NO:2) (25 μM control peptide), or TSP1+anti-TGF-β (5 μg/mL). Cultures were fed daily for 20 days. Alkaline phosphatase staining is representative of triplicate wells.
Referring to FIG. 1B, cells were treated every 2 days for 20 days with MSC growth media (control) or osteogenic media with TGF-β (5 ng/mL) or TSP1 (10 nM) daily treatment with 25 μM LSKL (SEQ ID NO:1) or SLLK (SEQ ID NO:2) peptides. RNA isolated from cells was used for RT-PCR analysis of Runx2 expression. Samples were run in duplicate and each experimental treatment in triplicate.

[11] = target: TSP1 (activation of recombinant latent TGF-β1) (Homo sapiens, UniProt P07996); test: Latent TGF-β activation by TSP1 in vitro (Quantikine ELISA for TGF-β1); format: biochemical; conditions: TSP1 155 nM
Chain of TSP1 (activation of recombinant latent TGF-β1) (P07996 19-1170): as the sequence (P07996 19-1170) above
Protocol: Previous studies have illustrated the ability of tripeptide analogs such as compound no. 93 to block latent TGF-β activation by TSP1 in vitro (see FIG. 5 and FIG. 6). Briefly, TSP1 (155 nM, 20 μg/ml) was incubated for 10 min at 37° C. with 93, LSKL (SEQ ID NO:1), or control SLLK (SEQ ID NO:2) peptide. The mixture was then incubated with […] recombinant latent TGF-β1 for 20 min at 37° C. TGF-β1 activity was measured using an R&D systems Quantikine ELISA for TGF-β1.

[12] = system: CAG-heparanase MM cells; test: PAI-1 promoter luciferase reporter assay of conditioned media of CAG-heparanase MM cells treated with TSP1; format: cell-based, human; conditions: 67 nM TSP1, conditioned media
Protocol: Referring to FIG. 4B, CAG-heparanase MM cells were treated with 67 nM TSP1 and conditioned media were assessed for TGF-β activity using PAI-1 promoter luciferase reporter assay. There is ˜[…] TGF-β in the added TSP1 and LSKL (SEQ ID NO:1) blocks 80% of the CAG-heparanase MM cell generated TGF-β activity.

[13] = 30 mg/kg i.p., 3 times weekly, 15 weeks; cited from earlier work
[14] = system: CAG human myeloma cells; test: SCID-tibia MM model; format: in vivo, SCID mice
Protocol: Referring to FIG. 2A and FIG. 2B, CAG human myeloma cells were injected into the intratibial marrow space of SCID mice. After 2 weeks, tumors were imaged by bioluminescence and serum 1 g kappa levels measured. Mice were randomized to equalize 1 g kappa levels. Osmotic pumps were implanted subcutaneously to deliver saline or LSKL peptide (SEQ ID NO:1) (30 mg/kg/day) (n=10/group). Tumors were imaged and serum 1 g kappa levels measured at 2 and 4 weeks of treatment. Data are means SEM. Bioluminescence; *p=0.019 ANOVA, serum kappa; p=0.037, t-test.
Referring to FIG. 3A-C, at 4 weeks of treatment, tibiae from mice injected with CAG MM cells were fixed and stained with antibody to phosphor-Smad 2. Left panels are from 2 different saline treated mice and the right panels are from LSKL (SEQ ID NO:1)-treated mice. Pixels of brown staining were quantified in 4 fields per animal. 5-6 animals per group were analyzed. Data are the percent area exceeding the threshold for positive staining (FIG. 3A). […] P=0.004.

[15] = cited from earlier work
[16] = ELISA-based assay, Table 2, read-out: % Inhibition at 50 pM
[17] = Conc. of compound 1 pM (last column: 30 nM)
[18] = Conc. of compound 50 pM (last column: 300 nM)
[19] = Conc. of compound 100 pM (last column: 3 μM)

Molecule: CC(=O)N[C@@H](CC(C)C)C(=O)N[C@@H](CCCN)C(N)=O [Compound 61, (S)-2-acetamido-N—((S)-1,5-diamino-1-oxopentan-2-yl)-4-methylpentanamide] (Ac-Leu-[Orn]-NH2)
% Inhibition at 50 pM ([1]; ELISA-based assay): 63% and 99%

Molecule: CC(=O)N[C@@H](CCCN)C(=O)NC(C)(C)C(N)=O [Compound 8, (S)-2-acetamido-5-amino-N-(1-amino-2-methyl-1-oxopropan-2-yl)pentanamide] (Ac-[Orn]-[Aib]-NH2)
inhibition at 50 pM [1, 16]: 100% | inhibition at 50 pM ([1]; read-out: Primary Assay (% Inhibition at 50 pM)): 79% | half-life [4]: 5 h | Solubility [5]: 4.5 µM (≈ 1.16 µg/mL) | logD [6]: 1 | % Inhibition [2, 17]: 65% | Conc. of Active TGF-β (pM) [2, 17]: 2.3 pM | % Inhibition [2, 18]: 79% | Conc. of Active TGF-β (pM) [2, 18]: 0.81 pM | % Inhibition [2, 19]: 80% | Conc. of Active TGF-β (pM) [2, 19]: 0.78 pM | inhibition at 0.3 µM ([2]; Homo sapiens, read-out: Secondary Assay: % Inhibition at 300 nM): 92% | Tmax [7]: 0.5 h | bioavailability [7]: 5% | half-life ([7]; iv): 1.9 h | half-life [8]: 2.84 h

Molecule: CC(=O)N[C@@H](CCCN)C(=O)NC1(C(N)=O)CCCC1 [Compound 13, (S)-1-(2-Acetamido-5-aminopentanamido)cyclopentanecarboxamide] (Ac-[Orn]-[Ac5c]-NH2)
inhibition at 50 pM [1, 16]: 35%

Molecule: CC(=O)N[C@@H](CCCN)C(=O)Nc1cc(C)c[nH]c1=O [Compound 30, (S)-2-acetamido-5-amino-N-(5-methyl-2-oxo-1,2-dihydropyridin-3-yl)pentanamide]
inhibition at 50 pM [1, 16]: 50%

Molecule: CC(C)C[C@H](NC(=O)[C@H](CCCN)NC(=O)C1CCCC1)C(N)=O [Compound 37, N—((S)-5-amino-1-(((S)-1-amino-4-methyl-1-oxopentan-2-yl)amino)-1-oxopentan-2-yl)cyclopentanecarboxamide]
inhibition at 50 pM [1, 16]: 30%

Molecule: CCCC(=O)N[C@@H](CCCN)C(=O)N[C@@H](CC(C)C)C(N)=O [Compound 63, (S)-5-amino-N—((S)-1-amino-4-methyl-1-oxopentan-2-yl)-2-butyramidopentanamide] (Butyryl-[Orn]-Leu-NH2)
% Inhibition at 50 pM ([1]; ELISA-based assay): 59% and 85% | % Inhibition [2, 17]: 67% | Conc. of Active TGF-β (pM) [2, 17]: 2.2 pM | % Inhibition [2, 18]: 82% | Conc. of Active TGF-β (pM) [2, 18]: 0.7 pM | % Inhibition [2, 19]: 100% | Conc. of Active TGF-β (pM) [2, 19]: 0 pM

The next lines start with results.

inhibition at 50 pM [1, 16]: 100%
Molecule: CC(=O)N[C@@H](CCCN)C(=O)NCC(N)=O [Compound 82, (S)-2-acetamido-5-amino-N-(2-amino-2-oxoethyl)pentanamide] (Ac-[Orn]-Gly-NH2)
% Inhibition [2, 17]: 17% | Conc. of Active TGF-β (pM) [2, 17]: 4.2 pM | % Inhibition [2, 18]: 80% | Conc. of Active TGF-β (pM) [2, 18]: 0.79 pM | % Inhibition [2, 19]: 100% | Conc. of Active TGF-β (pM) [2, 19]: 0 pM

Conc. of Active TGF-β (pM), ELISA which detects only active TGF-β [3]: 4.9 pM
Molecule: Thrombospondin 1 (TSP1), purified human platelet TSP-1 (from UniProt P07996 19-1170)

osteoblast differentiation by MSCs (alkaline phosphatase staining, Runx2 expression) [10]: Decrease Osteoblast Differentiation
Molecule: Thrombospondin 1 [TSP1]
TGF-β activity in CAG MM cells (phospho-Smad 2) [9]: Induces TGF-B Activity

osteoblast differentiation by MSCs (alkaline phosphatase staining, Runx2 expression) [10]: Decrease Osteoblast Differentiation
Molecule: TGF-β

latent TGF-β activation by TSP1 in vitro (TGF-β1 activity vs TSP1+latent TGF-β) [11]: not significant
Molecule: SLLK

osteoblast differentiation by MSCs (alkaline phosphatase staining, Runx2 expression) [10]: Increases Osteoblast Differentiation
Molecule: LSKL
TGF-β activity in CAG MM cells (phospho-Smad 2) [9]: Reduces TGF-B Activity | block of CAG-heparanase MM cell generated TGF-β activity [12]: 80% | necropsy findings after treatment [13]: no inflammation, no tumors in all major organs, and no impairment of wound healing | MM tumor burden (bioluminescence, serum Ig kappa) ([14]; 30 mg/kg/day by subcutaneous osmotic pump, 2 and 4 weeks of treatment): Reduces Mm Tumor Burden | phospho-Smad 2 staining in the bone marrow ([14]; 4 weeks of treatment, tibiae): Reduces Phospho-Smad 2 | plasma stability half-life [15]: 2.1 min
